Row | Compound | logP
1 | CCOc1cccc(NC(=O)OC)c1 | 2.31
2 | COC(=O)Nc1ccccc1Br | 2.3
3 | CCOc1ccc(NC(=O)OCC(C)C)cc1OCC | 3.36
4 | CCOc1ccc(NC(=O)OC(CBr)CBr)cc1OCC | 3.5
5 | COC(=O)Nc1ccc(OC)cc1 | 1.73
6 | COC(=O)Nc1ccc(C)cc1 | 2.29
7 | COC(=O)Nc1cccc(C)c1 | 2.29
8 | COC(=O)Nc1ccccc1 | 1.75
9 | CCOc1ccc(NC(=O)OC)cc1 | 2.15
10 | CCCCc1ccc(NC(=O)OC)cc1 | 3.69
11 | CCCOC(=O)Nc1ccc(OCC)c(OCC)c1 | 2.93
12 | COC(=O)Nc1cccc([N+](=O)[O-])c1 | 2
13 | COC(=O)Nc1ccccc1C | 1.69
14 | COC(=O)Nc1ccccc1OC | 1.84
15 | C#CCOC(=O)Nc1ccc(OCC)c(OCC)c1 | 2.68
16 | CCOc1ccc(NC(=O)OCc2ccccc2)cc1OCC | 3.29
17 | CCOc1ccc(NC(=O)OC)cc1OCC | 2.1
18 | COC(=O)Nc1cccc(C#N)c1 | 1.77
19 | CCOc1ccc(NC(=O)OC(C)C)cc1OCC | 2.91
20 | COC(=O)Nc1cccc(C(F)(F)F)c1 | 2.74
21 | COC(=O)Nc1cccc(OC)c1 | 1.92
22 | CCOC(=O)Nc1ccc(OCC)c(OCC)c1 | 2.54

The remaining lines, values ahead:

Row | logP | Compound
23 | 2.1 | COC(=O)Nc1ccccc1[N+](=O)[O-]
24 | 2.75 | C=CCOC(=O)Nc1ccc(OCC)c(OCC)c1
25 | 2.44 | COC(=O)Nc1ccccc1I
26 | 2.07 | CCOc1ccc(NC(=O)OCCC#N)cc1OCC
27 | 2.12 | COC(=O)Nc1ccc([N+](=O)[O-])cc1
28 | 2.16 | COC(=O)Nc1ccccc1Cl
29 | 3.46 | CCCCOC(=O)Nc1ccc(OCC)c(OCC)c1
30 | 2.75 | COC(=O)Nc1cccc(Br)c1
31 | 1.95 | COC(=O)Nc1ccc(F)cc1
32 | 2.09 | COC(=O)Nc1ccccc1C(F)(F)F
33 | 1.63 | COC(=O)Nc1cccc(C(C)=O)c1
34 | 2.27 | CCOc1ccc(NC(=O)OCCOC)cc1OCC
35 | 2.72 | CCc1ccc(NC(=O)OC)cc1
36 | 2.55 | COC(=O)Nc1ccc(Cl)cc1
37 | 2.43 | CCOc1ccccc1NC(=O)OC
38 | 2.74 | CCc1cccc(NC(=O)OC)c1
39 | 1.66 | COC(=O)Nc1ccccc1F
40 | 3.03 | COC(=O)Nc1cccc(I)c1
41 | 1.82 | COC(=O)Nc1ccc(C#N)cc1

Source: the OPERA property sets (Mansouri et al. 2018)
